Experimental data from patent US20160122407A1, “Galectin-3 Inhibitor (Gal-3M) is Associated with Additive Anti-Myeloma and Anti-Solid Tumor Effects, Decreased Osteoclastogenesis and Organ Protection when Used in Combination with Proteasome Inhibitors” (Texas Tech University System, priority 2014, published 2016).

How the values were obtained:
[1] = system: Raw264.7 cells co-cultured with 5TGM1 cells; test: 5TGM1-driven osteoclastogenesis in vitro (TRAP staining); type: cell-based, murine; conditions: co-culture with 5TGM1, 5 μM carfilzomib, 10 μM Gal3M, 7 days, vs control co-culture
Protocol: Osteoclast differentiation from RAW264.7 cells. For co-culture experiments Raw264.7 and 5TGM1 cells were seeded on a 6-well plate at a density of 1×10^4 cells/well (about 8×103 Raw264.7 and 2×103 […]) and cultured in presence/absence of carfilzomib, Gal3M or carfilzomib plus Gal3M. After 5-7 days cells were fixed on the culture plates with citrate-acetone solution and stained for TRAP (Sigma-Aldrich). Osteoclasts were identified and enumerated under light microscopy by the presence of ≧3 nuclei by using an Olympus microscope.

LLC = test: Murine lung cancer (LLC) study, measurement of tumor size; type: in vivo; conditions: LLC mice, treatment from 14 days after injection, Carfilzomib 112 ug and 224 ug
Protocol: Measurement of tumor size. 14 days after injection of LLC, the mice were treated with XM and Carfilzomib (112 ug and 224 ug) for two (2) consecutive days three (3) times weekly.

5TGM1 cells [2] = test: 5TGM1 syngeneic mice model of MM, serum IgG2b and SP17 ELISA; type: in vivo, C57BL/KaLwRij mice
Protocol: (§1) Testing Gal3M and carfilzomib in 5TGM1 syngeneic mice model. 5TGM1 cells were washed once with PBS (Sigma-Aldrich) and counted. The suspension containing […] 5TGM1 cells was injected I.V. into 20 C57BL/KaLwRij mice, 5 non-injected mice were used as negative controls. Tumor engraftment was assessed by testing IgG2b in the sera once a week. After 14 days the injected mice were randomly divided into four groups (five mice/group). Control group #1 was injected with PBS-only, group #2 received a dose of Gal3M (100 μg/mouse), group #3 received a dose of carfilzomib (112 μg/mouse) and group #4 received a dose of carfilzomib (112 μg/mouse) plus Gal3M (100 ug/mouse). Treatment effect on tumor growth was assessed by testing IgG2b and SP17 levels in the sera. Anesthetized animals were euthanized after 28 days and a postmortem examination was conducted on the whole animals and dissected organs.
ELISA for Sp17 and IgG2b. The levels of SP17 and IgG2b in mice serum were measured by direct ELISA as follows. Flat-bottom 96-well polycarbonate plates were coated with 100 μL/well sera diluted 1:25 in carbonate coating buffer (0.1 M Na2CO3, 0.1 M NaHCO3, pH 9.5) at 4° C. overnight. Then, after blocking with PBS supplemented with 1% W/V BSA for 1 hour at RT, plates were incubated with mouse anti-mouse Sp17 or IgG2b primary antibodies (1:500 in PBS, 100 μL/well, Santa Cruz Biotechnology) for 1 hour at RT. Then, plates were washed thrice with PBS with 0.025% V/V Tween-20 (200 μL/well) and incubated at RT with anti-mouse HRP-labeled secondary antibodies (1:10,000 in PBS; Abcam, Cambridge, Mass., USA) for 1 hour. The plates were washed thrice with PBS containing 0.025% V/V Tween-20 (200 μL/well), the TMB colorimetric substrate (Thermo Fisher Scientific, Waltham, Mass., USA) was added, and after 5 minutes the absorbance was measured (0.1 s) at 450 nm on a Victor 2 multimodal microplate reader (PerkinElmer, Billerica, Mass., USA). All samples were run in triplicates.

[3] = MM patients; cited from earlier work
5TGM1 cells [4] = test: Chemotaxis assay (Transwell); type: cell-based, murine
Protocol: Chemotaxis assay. 5TGM1 cells (4×10^5/well) were plated in 100 μL serum-free medium in the top chambers of 24-well Transwell™ inserts (Corning Costar, N.Y., USA) with 8-μm. Complete cell culture medium (600 μL) containing 10% FBS was added to the bottom chamber. Cells were treated for 4 hours with Gal3M (10 μg/ml), carfilzomib (10 nM) or carfilzomib plus Gal3M (same doses), and 5TGM1 cells in the lower chamber were fixed and counted.

kidney and heart = test: Kidney and heart toxicity in 5TGM1 mice (hematoxylin/eosin, activated caspase-3 IHC); conditions: mouse, in vivo
Protocol: 5TGM1 cells were washed once with PBS (Sigma-Aldrich) and counted. […] Tumor engraftment was assessed by testing IgG2b in the sera once a week. After 14 days the injected mice were randomly divided into four groups (five mice/group). […] Treatment effect on tumor growth was assessed by testing IgG2b and SP17 levels in the sera. Anesthetized animals were euthanized after 28 days and a postmortem examination was conducted on the whole animals and dissected organs.
Immunohistochemistry analysis of markers of osteoclasts (anti-Cathepsin K antibody, Abcam), osteoblasts (anti-osteocalcin antibody, Abcam) and apoptosis (anti-activated caspase-3 antibody, Cell Signaling Technologies) were carried out in paraffin-embedded sections. Hearts and kidneys from treated and control mice were fixed in formalin, dehydrated in ethanol, embedded in paraffin, and then cut in 3.5 μm-thick sections. For bone sections, following formalin-fixation, decalcification with 10% EDTA (pH=8), and de-hydration in ethanol, femurs were included in paraffin, then cut in 5 μm-thick sections. […] Sections were rinsed twice in PBS+0.05% Tween-20, then endogenous peroxidase was blocked with 1% H2O2 in PBS for 15′. After rinsing three times with PBS+0.05% Tween-20 for 2′, slides were incubated with the secondary antibody (1:1000, Goat anti-Rabbit-HRP, Abcam) for 1 hour at RT. […]

5TGM1 mice [5] = test: IHC for osteocalcin and Cathepsin K on decalcified bones; type: in vivo
Protocol: Immunohistochemistry. Immunohistochemistry analysis of markers of osteoclasts (anti-Cathepsin K antibody, Abcam), osteoblasts (anti-osteocalcin antibody, Abcam) and apoptosis (anti-activated caspase-3 antibody, Cell Signaling Technologies) were carried out in paraffin-embedded sections. Hearts and kidneys from treated and control mice were fixed in formalin, dehydrated in ethanol, embedded in paraffin, and then cut in 3.5 μm-thick sections. For bone sections, following formalin-fixation, decalcification with 10% EDTA (pH=8), and de-hydration in ethanol, femurs were included in paraffin, then cut in 5 μm-thick sections. After deparaffinization in xylene and re-hydration (100%-95%-70%-50% ethanol scale), slides were placed 10′ in distilled water, then incubated 20′ at 98° C. in Sodium Citrate Buffer (10 mM Sodium Citrate, 0.05% Tween 20, pH 6.0). After blocking with PBS+5% V/V FBS (2 hours at room temperature), the anti Cathepsin K, steocalcin and active Caspase3 antibodies were added (diluted 1:400 in PBS+1% BSA) and allowed to incubate overnight at 4° C. Sections were rinsed twice in PBS+0.05% Tween-20, then endogenous peroxidase was blocked with 1% H2O2 in PBS for 15′. After rinsing three times with PBS+0.05% Tween-20 for 2′, slides were incubated with the secondary antibody (1:1000, Goat anti-Rabbit-HRP, Abcam) for 1 hour at RT. […]

5TGM1 cells [6] = test: Cell viability assay (ViaLight Plus); type: cell-based, murine; conditions: Carf 10 nM, Gal3M 10 ug/ml
Protocol: Cell viability assay. 5TGM1 cells were treated for 48 hours with carfilzomib, Gal3M or the combination of these two agents, then cell viability was assessed by the ViaLight Plus Cell Proliferation and Cytotoxicity BioAssay Kit (Lonza) according to the directions of the manufacturer.

[7] = system: kidney, liver, lung, spleen, and heart; test: Western Blot of apoptotic marker caspase-3 in organs of LLC mice; type: in vivo, mouse; conditions: after 36 days
Source text: FIG. 14 is a Western Blot of the apoptopic marker […]-3 of cells in solid tumors with no treatment, XM alone, Carfilzomib alone, and Carfilzomib plus XM. After 36 days, the mice were sacrificed and organs collected for the Western Blot.

5TGM1 cells [8] = test: Invasion ability of 5TGM1 cells; type: cell-based, murine; conditions: Carf 10 nM, Gal3M 10 ug/ml
5TGM1 mice [9] = test: Bone mass density analysis on x-ray images of 5TGM1 mice; type: in vivo; conditions: compared with tumor-bearing untreated mice
Protocol: as §1
Bone mass density analysis. X-ray images were taken at the euthanasia day using IVIS Lumina Series III Pre-clinical In Vivo Imaging System (Perkin Elmer, USA) and bone mass density analysis (BMD) were performed as previously described (McManus M M, 2011).

lung cancer (tumor) = test: ELISA for AKAP-4 expression in tumor and lung tissue; type: in vivo, mice; conditions: tumor and lung tissue lysates
Source text: The wells were coated with tumor and lung tissue lysates.

Structure (SMILES): CC(C)C[C@H](NC(=O)[C@H](CCc1ccccc1)NC(=O)CN1CCOCC1)C(=O)N[C@@H](Cc1ccccc1)C(=O)N[C@@H](CC(C)C)C(=O)[C@@]1(C)CO1 [Carfilzomib]
- decrease in formation of TRAP+/multinucleated Raw264.7 cells [1]: 55%
- tumor growth (tumor size) (LLC): inhibited tumor growth
- decrease in IgG2b levels (5TGM1 cells [2]; day 21, treated on day 14, compared to untreated MM bearing mice): 14%
- decrease in SP17 serum levels (5TGM1 cells [2]; day 28, compared to untreated mice): 37%
- decrease in IgG2b levels (5TGM1 cells [2]; day 28, treated on day 14, compared to untreated MM bearing mice): 36%
- treated patients discontinuing therapy because of renal and cardiac side effects [3]: approximately 15%
- chemotaxis of 5TGM1 (in words) (5TGM1 cells [4]; Carf 10 nM, Gal3M 10 ug/ml): significantly inhibited
- inhibition at 0.01 µM (5TGM1 cells [4]; Mus musculus, 5TGM1 cells, 4 hours, Gal3M 10 μg/ml, carfilzomib 10 nM, read-out: inhibition of the ability of 5TGM1 cells to migrate in response to chemotactic stimuli): 40%
- histological analysis of kidney and heart: morphology and activated caspase-3 (kidney and heart; C57BL/KaLwRij, 28 days): associated with changes in cellular architecture and caspase-3 activation
- kidney toxicity (kidney and heart): kidney toxicity both at minimum and maximum dose
- Cathepsin K-positive cells (osteoclasts marker) (5TGM1 mice [5]): decrease
- osteocalcin-positive cells (osteoblasts marker) (5TGM1 mice [5]): increase
- growth of 5TGM1 (in words) (5TGM1 cells [6]): significantly inhibited
- apoptosis (caspase-3 Western Blot) in mouse organs [7]: increased apoptosis
- invasion ability of 5TGM1 (in words) (5TGM1 cells [8]): significantly inhibited
- BMD increase ROI2 (5TGM1 mice [9]; distal femur end): 19%
- BMD increase ROI1 (5TGM1 mice [9]; proximal femur end): 28%
- BMD increase ROI3 (5TGM1 mice [9]; tibia): 12%
- effect on lung cancer (AKAP-4 ELISA) (lung cancer (tumor)): have an effect on lung cancer (tumor)
